The results in this text go back to patent US11306098B2, “Substituted pyrrolo[1,2-a]pyrazines and pyrrolo[1,2-a][1,4]diazepines as TREX1 inhibitors” (VENENUM BIODESIGN, LLC, priority 2019, dated 2022).

One experiment concerns the target cleaved human TREX1 (Homo sapiens (Human), UniProt Q9NSU2). The experiment can be described thus: TREX1 Thermal Shift Binding Assay (human). Particulars: assay buffer, 100 μM compound, 5 μM TREX1; read-out: Thermal shift cleaved human TREX1, (ΔTm ° C.) Assay buffer. As to the method: (§1) Example B is a protein thermal shift assay used to assess the binding of TREX1 inhibitors to TREX1 protein. In this assay, TREX1 protein unfolding with increasing temperature was measured in the presence and absence of TREX1 inhibitors by following the increase in fluorescence of a thiol-reactive dye (e.g BODIPY FL-cystine) as it reacts with exposed TREX1 cysteine residues. The assay was conducted using human (SEQ ID NO: 1), or murine (SEQ ID NO: 2) TREX1 protein constructs.
(§2) The thermal shift assays used recombinant protein corresponding to human (SEQ ID NO: 1) and murine (SEQ ID NO: 2) TREX1. The protein encoding plasmid contained a N-terminal MBP (maltose binding protein) tag followed by the TREX1 coding sequence within the pMAL-c5E vector. The plasmid was transfected into a BL21 (DE3) E. coli expression strain. Protein was purified from the bacterial lysate using an Amylose resin column. The MBP tag was cleaved from the purified protein using recombinant enterokinase (EMD Millipore #69066-3). The cleaved TREX1 protein was further purified on a Q-Sepharose column followed by a heparin column.
(§3) Binding of compounds to both human and murine TREX1 were measured by protein thermal shift assays. (Huynh K, Partch C L. Current Protocols in Protein Science: Analysis of protein stability and ligand interactions by thermal shift assay. Current protocols in protein science/editorial board, John E Coligan. [et al]. 2015; 79:28.9.1-28.9.14. doi:10.1002/0471140864.ps2809s79.). Thermal shift assays were conducted in sealed 96-well PCR plates containing 5 μM TREX1 protein, 100 μM compound, and 2 μM BODIPY FL-cystine (Sigma) in either 20 μL assay buffer (20 mM Tris, 7.5, 5 mM MgCl2, 0.002% Triton X-100) or 20 μL phosphate buffered saline (PBS). Using a RT-qPCR machine (Mx3005P, Stratagene) changes in fluorescence (excitation at 492 nm and emission at 516 nm) were monitored as temperature was increased from 25° C. to 96° C. at a rate of 1° C. every 2 minutes. Tm values were calculated from the first derivative plot of fluorescence intensity versus temperature. The results shown in Table 6 indicate the examples bind to human TREX1 and murine TREX1. ND indicates assay was not done.

The next experiment addresses cleaved mouse TREX1 (Mus musculus (Mouse), UniProt Q91XB0). The experiment can be described thus: TREX1 Thermal Shift Binding Assay (mouse). Particulars: PBS, 100 μM compound, 5 μM TREX1; read-out: Thermal shift cleaved mouse TREX1, (ΔTm ° C.) PBS. As to the method: as §1, §2, §3
In another experiment the target is human TREX1 (Homo sapiens (Human), UniProt Q9NSU2). The experiment can be described thus: TREX1 Exonuclease Assay (human enzyme). In kind it is biochemical. The note with it: human TREX1 0.5 nM, FAM/BHQ1-labeled DNA oligonucleotide. A digest of the protocol: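 Human TREX1 (aa 55-297, 0.5 nM) or murine TREX1 (aa 1-242, 1 nM) preincubated 30 min with compound (11-point, 3-fold), then 500 nM FAM/BHQ1-quenched DNA oligo added; 45 min at room temperature in pH 7.5 Tris buffer with 5 mM MgCl2, EDTA-stopped. Fluorescence (ex 485/em 535 nm) fit to four-parameter curve for IC50.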
Chain of human TREX1 (Q9NSU2 1-242): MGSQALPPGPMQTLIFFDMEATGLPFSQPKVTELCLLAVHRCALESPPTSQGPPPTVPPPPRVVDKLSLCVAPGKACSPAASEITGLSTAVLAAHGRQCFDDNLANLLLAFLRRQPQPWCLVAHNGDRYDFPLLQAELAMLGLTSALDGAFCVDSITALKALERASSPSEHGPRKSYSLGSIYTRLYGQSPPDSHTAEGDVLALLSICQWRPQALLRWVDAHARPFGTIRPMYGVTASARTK

Chain of cleaved mouse TREX1 (Q91XB0 1-242): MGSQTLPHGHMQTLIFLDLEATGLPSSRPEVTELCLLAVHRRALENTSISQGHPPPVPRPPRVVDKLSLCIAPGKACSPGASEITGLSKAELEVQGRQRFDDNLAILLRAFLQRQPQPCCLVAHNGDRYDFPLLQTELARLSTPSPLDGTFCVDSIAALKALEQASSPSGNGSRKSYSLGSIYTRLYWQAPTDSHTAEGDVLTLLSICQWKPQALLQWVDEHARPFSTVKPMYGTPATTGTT
Chain of cleaved human TREX1 (Q9NSU2 1-242): as the sequence (Q9NSU2 1-242) above

With `N[C@@H]1C[C@H]2C(=O)N([C@H](CCC(=O)O)C(=O)NCc3ccc(Cl)c(Cl)c3)CCC(CCc3ccccc3)N2C1` (stereo partly drawn) [Example 14B], the ΔTm at 100 µM on cleaved human TREX1 and on cleaved mouse TREX1 was above 8 °C throughout. Moreover, the IC50 on human TREX1 is below 1000 nM.
